{
  "source": "patent US9464056B2",
  "about": "“Fungicidal 4-methylanilino pyrazoles” (E. I. DU PONT DE NEMOURS AND COMPANY, priority 2012, dated 2016)",
  "key": {"Septoria tritici": {"system": "Septoria tritici", "assay": "Test D: preventive spray on wheat seedlings, Septoria tritici (wheat leaf blotch), visual disease rating", "type": "in vivo", "details": "Zymoseptoria tritici, topical, 504 h, 100 = 100% disease control, 0 = no disease control relative to controls", "text": "(§1) General protocol for preparing test suspensions for Tests A-H: the test compounds were first dissolved in acetone in an amount equal to 3% of the final volume and then suspended at the desired concentration (in ppm) in acetone and purified water (50/50 mix by volume) containing 250 ppm of the surfactant Trem® 014 (polyhydric alcohol esters). The resulting test suspensions were then used in Tests A-F. Spraying a 40 ppm test suspension to the point of run-off on the test plants was the equivalent of a rate of 160 g/ha. Unless otherwise indicated, the rating values indicate a 40 ppm test suspension was used. The test suspension was sprayed to the point of run-off on wheat seedlings. The following day the seedlings were inoculated with a spore suspension of Septoria tritici (the causal agent of wheat leaf blotch) and incubated in saturated atmosphere at 24° C. for 48 h, and then moved to a growth chamber at 20° C. for 19 days, after which time visual disease ratings were made. Results for Tests A-F are given in Table A. In the Table, a rating of 100 indicates 100% disease control and a rating of 0 indicates no disease control (relative to the controls). A dash (-) indicates no test results."}, "[1]": {"assay": "Single oral dose pharmacokinetics in rats, plasma and fat analysed by LC/MS (fat:plasma ratio)", "type": "in vivo", "details": "vertebrate animals (rats), single oral gavage dose; compared to corresponding analogs", "procedure": "The pharmacokinetic properties of compounds of Formula 1 can be measured using a wide variety of assay protocols known in the science of pharmacology. In one illustrative method involving a single oral dose, three male and three female rats receive a single dose of a test substance via oral gavage. Approximately 0.25 mL of blood is collected via tail vein immediately prior to dosing, and then at 0.25, 0.5, 1, 2, 4, 8, 12, 24 h and every 24 h thereafter until sacrifice. At sacrifice, fat is also collected to determine the fat:plasma ratio at sacrifice. […] After removal of the proteins, the plasma is analyzed for parent compound and/or metabolites by liquid chromatography-mass spectrometry (LC/MS). […] The extract is then analyzed for parent compound and/or metabolites by LC/MS. The plasma pharmacokinetic data is then analyzed using nonlinear modeling software (e.g., WinNonlin™ from Pharsight, Cary, N.C., U.S.A.) to determine half-life of the administered compound in plasma, the time after administration when the maximum plasma concentration is reached (Tmax), the maximum plasma concentration (Cmax) and the area under the plasma concentration curve (AUC). […] However, by using multiple rats sacrificed after different intervals from time of dosing, such parameters as Cmax for fat are determined."}, "Botrytis cinerea": {"system": "Botrytis cinerea", "assay": "Test A: preventive spray on tomato seedlings, Botrytis cinerea (tomato Botrytis), visual disease rating", "type": "in vivo", "details": "100 = 100% disease control, 0 = no disease control relative to controls", "text": "as §1, with “tomato” for “wheat”, “Botrytis cinerea” for “Septoria tritici”, “tomato Botrytis)” for “wheat leaf blotch)”, “20°” for “24°”, “27°” for “20°”, “3” for “19”"}},
  "data": [
    {"smiles": "Cc1cc(F)c(Nc2c(-c3ccc(F)cc3Cl)c(C)nn2C)c(Br)c1", "note": "[Compound 1, N-(2-bromo-6-fluoro-4-methylphenyl)-4-(2-chloro-4-fluorophenyl)-1,3-dimethyl-1H-pyrazol-5-amine]", "values": [
      {"measurement": "melting point", "value": "132 to 133", "unit": "°C"},
      {"measurement": "pest or weed control at 40 µg/mL", "setting": "Septoria tritici", "value": 100, "unit": "%"},
      {"measurement": "distribution into fat", "setting": "[1]", "value": "significantly diminished distribution into fat"},
      {"measurement": "pest or weed control at 40 µg/mL", "setting": "Botrytis cinerea", "value": 100, "unit": "%"}
    ]}
  ]
}
